# From US10098878B2, “HIF-2α inhibitors for treating iron overload disorders” (The Board of Regents of the University of Texas System, priority 2014, dated 2018)
# Test system: 786-O-Hif-Luc cells
# Assay: Luciferase Assay
# Type: cell-based
# Conditions: 786-O-Hif-Luc cells; about 24 hours; read-out: Luciferase EC50
# Method: A pool of infected cells were then selected against 2 μg/mL of puromycin (P8833, Sigma) for 10 days followed by limited dilution to select single clones.
# Each concentration was tested in triplicate. After about 24 hours, luciferase activity was determined using ONE-Glo Luciferase Assay Reagent (E6110, Promega) following the manufacturer's recommended procedure. EC50 were calculated by using Dotmatics software.
row,SMILES,EC50 [nM]
1,"N#Cc1cc(F)cc(Oc2ccc3c(c2C(F)F)[C@@H](O)C(F)(F)S3(=O)=O)c1 (single isomer, unassigned) [Compound 113]",7

# Same assay, conditions: 24 h, 786-O-Hif-Luc cells; about 24 hours; read-out: Luciferase EC50
row,SMILES,EC50 [nM]
1,"N#Cc1cc(F)cc(Oc2ccc(S(=O)(=O)C(F)F)c3c2CC(F)(F)[C@H]3O)c1 [Compound 1, 3-[(1S)-7-(difluoromethylsulfonyl)-2,2-difluoro-1-hydroxy-indan-4-yl]oxy-5-fluoro-benzonitrile]",7
2,"Cn1cc(Oc2ccc(S(=O)(=O)C(F)(F)F)c3c2CC(F)(F)[C@H]3O)cn1 [Compound 13, (S)-2,2-Difluoro-4-((1-methyl-1H-pyrazol-4-yl)oxy)-7-((trifluoromethyl)sulfonyl)-2,3-dihydro-1H-inden-1-ol]",177
3,"N#Cc1cc(F)cc(Oc2ccc(S(=O)(=O)C(F)(F)F)c3c2C[C@@H](F)[C@H]3O)c1 [Compound 15, 3-Fluoro-5-(((1S,2R)-2-fluoro-1-hydroxy-7-((trifluoromethyl)sulfonyl)-2,3-dihydro-1H-inden-4-yl)oxy)benzonitrile]",3
4,"O=S(=O)(c1ccc(Oc2ccc(F)c3[nH]ncc23)c2c1C(O)C(F)(F)C2)C(F)(F)F (centres unmarked) [Compound 21, 2,2-Difluoro-4-((7-fluoro-1H-indazol-4-yl)oxy)-7-((trifluoromethyl)sulfonyl)-2,3-dihydro-1H-inden-1-ol]",137
5,"O=[N+]([O-])c1ccc(Oc2cc(F)cc(Cl)c2)c2c1C(O)CC2 (centres unmarked) [Compound 27, 4-(3-Chloro-5-fluorophenoxy)-7-nitro-2,3-dihydro-1H-inden-1-ol]",1390
6,"CS(=O)(=O)c1ccc(Oc2cc(F)cc(C#N)c2)c2c1[C@H](O)CC2 [Compound 51, 3-fluoro-5-[(1R)-1-hydroxy-7-methylsulfonyl-indan-4-yl]oxy-benzonitrile]",650
7,"CS(=O)(=O)c1ccc(Oc2cc(F)cc(C#N)c2)c2c1[C@H](O)[C@H](F)[C@@H]2F [Compound 53, 3-[(1S,2S,3R)-2,3-difluoro-1-hydroxy-7-methylsulfonyl-indan-4-yl]oxy-5-fluoro-benzonitrile]",4
8,"CS(=O)(=O)c1ccc(Oc2cc(F)cc(C#N)c2)c2c1[C@H](O)[C@H](F)[C@H]2F [Compound 58, 3-[(1S,2S,3S)-2,3-difluoro-1-hydroxy-7-methylsulfonyl-indan-4-yl]oxy-5-fluoro-benzonitrile]",1020

# Same assay, conditions: 24 h, read-out: Luciferase EC50
row,SMILES,EC50 [nM]
1,"CS(=O)(=O)c1ccc(Oc2cc(F)cc(C#N)c2)c2c1[C@H](O)C(F)(F)C2 [Compound 5, (S)-3-((2,2-Difluoro-1-hydroxy-7-(methylsulfonyl)-2,3-dihydro-1H-inden-4-yl)oxy)-5-fluorobenzonitrile]",24
2,"CS(=O)(=O)c1ccc(Oc2cc(F)cc(C#N)c2)c2c1[C@H](N)C(F)(F)C2 [Compound 6, 3-[(1S)-1-Amino-2,2-difluoro-7-methylsulfonyl-indan-4-yl]oxy-5-fluoro-benzonitrile]",244
3,"[2H]C([2H])([2H])S(=O)(=O)c1ccc(Oc2cc(F)cc(C#N)c2)c2c1[C@]([2H])(O)C(F)(F)C2 [Compound 16, 3-[(1S)-1-Deuterio-2,2-difluoro-1-hydroxy-7-(trideuteriomethylsulfonyl)indan-4-yl]oxy-5-fluoro-benzonitrile]",24
4,"CS(=O)(=O)c1ccc(Oc2cc(F)cc(C#N)c2)c2c1[C@H](O)[C@H](F)C2 [Compound 17, 3-Fluoro-5-(((1S,2R)-2-fluoro-1-hydroxy-7-(methylsulfonyl)-2,3-dihydro-1H-inden-4-yl)oxy)benzonitrile]",36
5,"N#Cc1cncc(Oc2ccc(S(=O)(=O)C(F)(F)F)c3c2CC(F)(F)[C@H]3O)c1 [Compound 18, (S)-5-((2,2-Difluoro-1-hydroxy-7-((trifluoromethyl)sulfonyl)-2,3-dihydro-1H-inden-4-yl)oxy)nicotinonitrile]",15
6,"[2H][C@]1(O)c2c(S(C)(=O)=O)ccc(Oc3cc(F)cc(C#N)c3)c2CC1(F)F [Compound 23, (S)-3-((2,2-Difluoro-1-hydroxy-7-(methylsulfonyl)-2,3-dihydro-1H-inden-4-yl-1-d)oxy)-5-fluorobenzonitrile]",24
7,"CNS(=O)(=O)c1ccc(Oc2cc(F)cc(C#N)c2)c2c1[C@H](O)C(F)(F)C2 [Compound 26, (S)-7-(3-Cyano-5-fluorophenoxy)-2,2-difluoro-3-hydroxy-N-methyl-2,3-dihydro-1H-indene-4-sulfonamide]",119
8,"CS(=O)(=O)c1ccc(Oc2cc(F)cc(C#N)c2)c2c1[C@H](O)[C@@H](F)C2 [Compound 35, 3-fluoro-5-(((1S,2S)-2-fluoro-1-hydroxy-7-(methylsulfonyl)-2,3-dihydro-1H-inden-4-yl)oxy)benzonitrile]",473
9,"N#Cc1cc(F)cc(Oc2ccc(S(=O)(=O)C(F)(F)F)c3c2CC(F)(F)[C@H]3N)c1 [Compound 54, 3-[(1S)-1-amino-2,2-difluoro-7-(trifluoromethylsulfonyl)indan-4-yl]oxy-5-fluoro-benzonitrile]",170

# Same assay, conditions: read-out: Luciferase EC50
row,SMILES,EC50 [nM]
1,"N#Cc1cc(F)cc(Oc2ccc3c(c2C(F)F)[C@H](O)C(F)(F)S3(=O)=O)c1 (single isomer, unassigned) [Compound 144]",19

# Target: T1, HIF-2α HIS TAG-PASB Domain (Homo sapiens, UniProt Q99814)
# T1 construct: 100 nM HIF-2α HIS TAG-PASB Domain
# Assay: HIF-2α Scintillation Proximity Assay (SPA)
# Type: binding
# Conditions: 150 nM Compound 211 probe, 100 nM HIF-2α HIS TAG-PASB Domain; read-out: SPA IC50
# Method: The total assay volume was about 100 μL in the following configuration: 2 μL compound in 100% DMSO, 88 μL buffer with protein and probe and 10 μL of SPA beads. […] The percent inhibition was determined and IC50 values were calculated using the Dotmatics system based on the following equation: % inhibition=[(high control−sample)/(high control−low control)]×100.
# T1 sequence (Q99814 240-350 limits assumed): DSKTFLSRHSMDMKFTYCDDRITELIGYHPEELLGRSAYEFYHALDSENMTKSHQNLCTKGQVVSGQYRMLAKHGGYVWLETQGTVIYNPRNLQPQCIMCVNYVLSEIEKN
row,SMILES,IC50 [nM]
1,"O=C1c2c(ccc(Oc3cc(F)cc(Cl)c3)c2Br)S(=O)(=O)C12CC2 [Compound 168, 4-Bromo-5-(3-chloro-5-fluoro-phenoxy)-1,1-dioxo-spiro[benzothiophene-2,1′-cyclopropane]-3-one]",6300
2,"N#Cc1c(Oc2cc(F)cc(Cl)c2)ccc2c1[C@H](O)CS2(=O)=O [Compound 171, (3S)-5-(3-Chloro-5-fluoro-phenoxy)-3-hydroxy-1,1-dioxo-2,3-dihydrobenzothiophene-4-carbonitrile]",12900
3,"CC1(C)C(O)c2c(ccc(Oc3cc(F)cc(Cl)c3)c2C#N)S1(=O)=O (centres unmarked) [Compound 172, 5-(3-Chloro-5-fluoro-phenoxy)-3-hydroxy-2,2-dimethyl-1,1-dioxo-3H-benzothiophene-4-carbonitrile]",19600
4,"N#Cc1cc(F)cc(Oc2ccc3c(c2C#CCF)C(O)C(F)(F)S3(=O)=O)c1 (centres unmarked) [Compound 174, 3-[[2,2-Difluoro-4-(3-fluoroprop-1-ynyl)-3-hydroxy-1,1-dioxo-3H-benzothiophen-5-yl]oxy]-5-fluoro-benzonitrile]",10900
5,"O=S1(=O)C[C@H](O)c2c1ccc(Oc1cc(F)cc(F)c1)c2Br [Compound 177, (R)-4-bromo-5-(3,5-difluorophenoxy)-3-hydroxy-2,3-dihydrobenzo[b]thiophene 1,1-dioxide]",4660
6,"N#Cc1cc(F)cc(Oc2ccc3c(c2Br)[C@@H](O)CS3(=O)=O)c1 [Compound 179, (R)-3-((4-Bromo-3-hydroxy-1,1-dioxido-2,3-dihydrobenzo[b]thiophen-5-yl)oxy)-5-fluorobenzonitrile]",13400
7,"O=C1CS(=O)(=O)c2ccc(Oc3cc(F)cc(F)c3)cc21 [Compound 181, 5-(3,5-Difluorophenoxy)benzo[b]thiophen-3(2H)-one 1,1-dioxide]",17600
8,"O=S1(=O)CC(O)c2c1ccc(Oc1cc(F)cc(F)c1)c2Br (centres unmarked) [Compound 182, 4-Bromo-5-(3,5-difluorophenoxy)-3-hydroxy-2,3-dihydrobenzo[b]thiophene 1,1-dioxide]",17100
9,"O=S1(=O)C[C@H](O)c2c1ccc(Oc1cccc(F)c1)c2Br [Compound 183, (R)-4-bromo-5-(3-fluorophenoxy)-3-hydroxy-2,3-dihydrobenzo[b]thiophene 1,1-dioxide]",13700
10,"N#Cc1cncc(Oc2ccc3c(c2Br)[C@@H](O)CS3(=O)=O)c1 [Compound 184, (R)-5-((4-bromo-3-hydroxy-1,1-dioxido-2,3-dihydrobenzo[b]thiophen-5-yl)oxy)nicotinonitrile]",10200
11,"CC1(O)c2cc(Oc3cc(F)cc(F)c3)ccc2S(=O)(=O)C1(F)F (centres unmarked) [Compound 189, 5-(3,5-Difluorophenoxy)-2,2-difluoro-3-hydroxy-3-methyl-2,3-dihydrobenzo[b]thiophene 1,1-dioxide]",6860
12,"COc1cncc(Oc2ccc3c(c2Br)[C@@H](O)C(F)(F)S3(=O)=O)c1 [Compound 193, (R)-4-bromo-2,2-difluoro-3-hydroxy-5-((5-methoxypyridin-3-yl)oxy)-2,3-dihydrobenzo[b]thiophene 1,1-dioxide]",14300
13,"CCOc1ccc2c(c1C(F)F)[C@@H](O)C(F)(F)S2(=O)=O [Compound 202, (R)-4-(Difluoromethyl)-5-ethoxy-2,2-difluoro-3-hydroxy-2,3-dihydrobenzo[b]thiophene 1,1-dioxide]",15500
14,"N#Cc1cc(F)cc(Oc2ccc3c(c2C(F)F)C(O)(C(F)(F)F)C(F)(F)S3(=O)=O)c1 (centres unmarked) [Compound 209, 3-((4-(difluoromethyl)-2,2-difluoro-3-hydroxy-1,1-dioxido-3-(trifluoromethyl)-2,3-dihydrobenzo[b]thiophen-5-yl)oxy)-5-fluorobenzonitrile]",4400

# Same assay, conditions: SPA IC50, 150 nM Compound 211 probe, 100 nM HIF-2α HIS TAG-PASB Domain
row,SMILES,IC50 [nM]
1,"O=S1(=O)CCC(O)c2c1ccc(Oc1cc(F)cc(F)c1)c2C(F)F (centres unmarked) [Compound 166, 5-(Difluoromethyl)-6-(3,5-difluorophenoxy)-4-hydroxythiochromane 1,1-dioxide]",4100
2,"CC1(C)C(O)c2c(ccc(Oc3cc(F)cc(Cl)c3)c2Br)S1(=O)=O (centres unmarked) [Compound 170, 4-Bromo-5-(3-chloro-5-fluoro-phenoxy)-2,2-dimethyl-1,1-dioxo-3H-benzothiophen-3-ol]",21900
